Laboratory results reported in PubChem BioAssay (NCI).
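Cultured in 96-well plates, cells were exposed to test compound for 48 hours across five concentrations. Definition used: TGI = concentration required for complete inhibition of growth.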

What was measured:
Assay in all cases: growth of human tumour cells (NCI), 48 h
786-0 renal = system: 786-0 renal
A498 renal = system: A498 renal
A549 NSCLC = system: A549 NSCLC
ACHN renal = system: ACHN renal
CAKI-1 renal = system: CAKI-1 renal
CCRF-CEM leukemia = system: CCRF-CEM leukemia
COLO 205 colon = system: COLO 205 colon
DU-145 prostate = system: DU-145 prostate
EKVX NSCLC = system: EKVX NSCLC
HCC-2998 colon = system: HCC-2998 colon
HCT-116 colon = system: HCT-116 colon
HCT-15 colon = system: HCT-15 colon
HL-60(TB) leukemia = system: HL-60(TB) leukemia
HOP-62 NSCLC = system: HOP-62 NSCLC
HOP-92 NSCLC = system: HOP-92 NSCLC
HS 578T breast = system: HS 578T breast
HT29 colon = system: HT29 colon
IGROV1 ovarian = system: IGROV1 ovarian
K-562 leukemia = system: K-562 leukemia
KM12 colon = system: KM12 colon
LOX IMVI melanoma = system: LOX IMVI melanoma
M14 melanoma = system: M14 melanoma
MALME-3M melanoma = system: MALME-3M melanoma
MCF7 breast = system: MCF7 breast
MDA-MB-231 breast = system: MDA-MB-231 breast
MDA-MB-435 = system: MDA-MB-435
MDA-N = system: MDA-N
MOLT-4 leukemia = system: MOLT-4 leukemia
NCI-H226 lung = system: NCI-H226 lung
NCI-H23 lung = system: NCI-H23 lung
NCI-H460 lung = system: NCI-H460 lung
NCI-H522 lung = system: NCI-H522 lung
OVCAR-3 ovarian = system: OVCAR-3 ovarian
OVCAR-4 ovarian = system: OVCAR-4 ovarian
OVCAR-5 ovarian = system: OVCAR-5 ovarian
OVCAR-8 ovarian = system: OVCAR-8 ovarian
PC-3 prostate = system: PC-3 prostate
RPMI-8226 leukemia = system: RPMI-8226 leukemia
RXF 393 renal = system: RXF 393 renal
SF-268 CNS = system: SF-268 CNS
SF-295 CNS = system: SF-295 CNS
SF-539 CNS = system: SF-539 CNS
SK-MEL-2 melanoma = system: SK-MEL-2 melanoma
SK-MEL-28 melanoma = system: SK-MEL-28 melanoma
SK-MEL-5 melanoma = system: SK-MEL-5 melanoma
SK-OV-3 ovarian = system: SK-OV-3 ovarian
SN12C renal = system: SN12C renal
SNB-19 CNS = system: SNB-19 CNS
SNB-75 CNS = system: SNB-75 CNS
SW-620 colon = system: SW-620 colon
T-47D breast = system: T-47D breast
TK-10 renal = system: TK-10 renal
U251 CNS = system: U251 CNS
UACC-257 melanoma = system: UACC-257 melanoma
UACC-62 melanoma = system: UACC-62 melanoma
UO-31 renal = system: UO-31 renal
SR leukemia = system: SR leukemia

Q: How did the TGI (786-0 renal) turn out when `C=C(CN(C)C)C1(c2ccccc2)CC2(CCCC2)C(=O)O1` (centres undefined) was run?
A: > 100 µM

Q: What about the TGI (A498 renal) of the same compound?
A: > 100 µM

Q: And the TGI (A549 NSCLC)?
A: > 100 µM

Q: What about the TGI (ACHN renal) of the same compound?
A: > 100 µM

Q: And the TGI (CAKI-1 renal)?
A: > 100 µM

Q: And the TGI (CCRF-CEM leukemia)?
A: 53.4 µM

Q: And the TGI (COLO 205 colon)?
A: 74.7 µM

Q: And the TGI (DU-145 prostate)?
A: > 100 µM

Q: And the TGI (EKVX NSCLC)?
A: > 100 µM

Q: And the TGI (HCC-2998 colon)?
A: > 100 µM

Q: And the TGI (HCT-116 colon)?
A: > 100 µM

Q: What about the TGI (HCT-15 colon) of the same compound?
A: > 100 µM

Q: And the TGI (HL-60(TB) leukemia)?
A: 53.8 µM

Q: And the TGI (HOP-62 NSCLC)?
A: > 100 µM

Q: What about the TGI (HOP-92 NSCLC) of the same compound?
A: 56.1 µM

Q: And the TGI (HS 578T breast)?
A: > 100 µM

Q: What about the TGI (HT29 colon) of the same compound?
A: 74.7 µM

Q: And the TGI (IGROV1 ovarian)?
A: > 100 µM

Q: What about the TGI (K-562 leukemia) of the same compound?
A: > 100 µM

Q: And the TGI (KM12 colon)?
A: > 100 µM

Q: What about the TGI (LOX IMVI melanoma) of the same compound?
A: > 100 µM

Q: And the TGI (M14 melanoma)?
A: > 100 µM

Q: And the TGI (MALME-3M melanoma)?
A: > 100 µM

Q: And the TGI (MCF7 breast)?
A: > 100 µM

Q: What about the TGI (MDA-MB-231 breast) of the same compound?
A: > 100 µM

Q: What about the TGI (MDA-MB-435) of the same compound?
A: > 100 µM

Q: And the TGI (MDA-N)?
A: > 100 µM

Q: What about the TGI (MOLT-4 leukemia) of the same compound?
A: 78.1 µM

Q: And the TGI (NCI-H226 lung)?
A: > 100 µM

Q: What about the TGI (NCI-H23 lung) of the same compound?
A: 82.4 µM

Q: What about the TGI (NCI-H460 lung) of the same compound?
A: > 100 µM

Q: What about the TGI (NCI-H522 lung) of the same compound?
A: 47.5 µM

Q: And the TGI (OVCAR-3 ovarian)?
A: > 100 µM

Q: What about the TGI (OVCAR-4 ovarian) of the same compound?
A: > 100 µM

Q: And the TGI (OVCAR-5 ovarian)?
A: > 100 µM

Q: And the TGI (OVCAR-8 ovarian)?
A: > 100 µM

Q: What about the TGI (PC-3 prostate) of the same compound?
A: > 100 µM

Q: What about the TGI (RPMI-8226 leukemia) of the same compound?
A: > 100 µM

Q: And the TGI (RXF 393 renal)?
A: > 100 µM

Q: And the TGI (SF-268 CNS)?
A: > 100 µM

Q: What about the TGI (SF-295 CNS) of the same compound?
A: > 100 µM

Q: And the TGI (SF-539 CNS)?
A: > 100 µM

Q: What about the TGI (SK-MEL-2 melanoma) of the same compound?
A: > 100 µM

Q: And the TGI (SK-MEL-28 melanoma)?
A: > 100 µM

Q: What about the TGI (SK-MEL-5 melanoma) of the same compound?
A: > 100 µM

Q: What about the TGI (SK-OV-3 ovarian) of the same compound?
A: > 100 µM

Q: And the TGI (SN12C renal)?
A: > 100 µM

Q: And the TGI (SNB-19 CNS)?
A: > 100 µM

Q: What about the TGI (SNB-75 CNS) of the same compound?
A: > 100 µM

Q: What about the TGI (SW-620 colon) of the same compound?
A: > 100 µM

Q: And the TGI (T-47D breast)?
A: > 100 µM

Q: And the TGI (TK-10 renal)?
A: > 100 µM

Q: And the TGI (U251 CNS)?
A: > 100 µM

Q: And the TGI (UACC-257 melanoma)?
A: > 100 µM

Q: What about the TGI (UACC-62 melanoma) of the same compound?
A: > 100 µM

Q: What about the TGI (UO-31 renal) of the same compound?
A: 62.9 µM

Q: `Cc1ccc(Nc2nc(C)c(C(=O)CC(=O)C(=O)Nc3ccc(Cl)cc3)s2)cc1` was tested. Which TGI (786-0 renal) did it give?
A: > 100 µM

Q: And the TGI (A498 renal)?
A: > 100 µM

Q: What about the TGI (A549 NSCLC) of the same compound?
A: > 100 µM

Q: And the TGI (ACHN renal)?
A: > 100 µM

Q: And the TGI (CAKI-1 renal)?
A: > 100 µM

Q: And the TGI (CCRF-CEM leukemia)?
A: > 100 µM

Q: And the TGI (COLO 205 colon)?
A: > 100 µM

Q: And the TGI (DU-145 prostate)?
A: > 100 µM

Q: And the TGI (EKVX NSCLC)?
A: > 100 µM

Q: And the TGI (HCC-2998 colon)?
A: > 100 µM

Q: And the TGI (HCT-116 colon)?
A: > 100 µM

Q: And the TGI (HCT-15 colon)?
A: > 100 µM

Q: What about the TGI (HL-60(TB) leukemia) of the same compound?
A: > 100 µM

Q: And the TGI (HOP-62 NSCLC)?
A: > 100 µM

Q: What about the TGI (HOP-92 NSCLC) of the same compound?
A: > 100 µM

Q: And the TGI (HS 578T breast)?
A: > 100 µM

Q: And the TGI (IGROV1 ovarian)?
A: > 100 µM

Q: What about the TGI (K-562 leukemia) of the same compound?
A: > 100 µM

Q: What about the TGI (KM12 colon) of the same compound?
A: > 100 µM

Q: And the TGI (LOX IMVI melanoma)?
A: > 100 µM

Q: What about the TGI (M14 melanoma) of the same compound?
A: > 100 µM

Q: What about the TGI (MALME-3M melanoma) of the same compound?
A: > 100 µM

Q: What about the TGI (MCF7 breast) of the same compound?
A: > 100 µM

Q: What about the TGI (MDA-MB-231 breast) of the same compound?
A: > 100 µM

Q: What about the TGI (MDA-MB-435) of the same compound?
A: > 100 µM

Q: What about the TGI (MDA-N) of the same compound?
A: > 100 µM

Q: And the TGI (MOLT-4 leukemia)?
A: > 100 µM

Q: And the TGI (NCI-H23 lung)?
A: > 100 µM

Q: What about the TGI (NCI-H460 lung) of the same compound?
A: > 100 µM

Q: And the TGI (NCI-H522 lung)?
A: > 100 µM

Q: And the TGI (OVCAR-3 ovarian)?
A: > 100 µM

Q: And the TGI (OVCAR-5 ovarian)?
A: > 100 µM

Q: What about the TGI (PC-3 prostate) of the same compound?
A: > 100 µM

Q: And the TGI (RPMI-8226 leukemia)?
A: > 100 µM

Q: And the TGI (RXF 393 renal)?
A: > 100 µM

Q: And the TGI (SF-268 CNS)?
A: > 100 µM

Q: And the TGI (SF-295 CNS)?
A: > 100 µM

Q: What about the TGI (SF-539 CNS) of the same compound?
A: > 100 µM

Q: And the TGI (SK-MEL-2 melanoma)?
A: > 100 µM

Q: And the TGI (SK-MEL-28 melanoma)?
A: > 100 µM

Q: And the TGI (SK-MEL-5 melanoma)?
A: > 100 µM

Q: What about the TGI (SK-OV-3 ovarian) of the same compound?
A: > 100 µM

Q: And the TGI (SN12C renal)?
A: > 100 µM

Q: What about the TGI (SNB-19 CNS) of the same compound?
A: > 100 µM

Q: What about the TGI (SNB-75 CNS) of the same compound?
A: > 100 µM

Q: And the TGI (SR leukemia)?
A: > 100 µM

Q: And the TGI (SW-620 colon)?
A: > 100 µM

Q: What about the TGI (T-47D breast) of the same compound?
A: > 100 µM

Q: What about the TGI (TK-10 renal) of the same compound?
A: > 100 µM

Q: And the TGI (U251 CNS)?
A: > 100 µM

Q: What about the TGI (UACC-257 melanoma) of the same compound?
A: > 100 µM

Q: What about the TGI (UACC-62 melanoma) of the same compound?
A: > 100 µM

Q: What about the TGI (UO-31 renal) of the same compound?
A: > 100 µM
